Test results as given in PMC11992225, “Antibacterial compounds against non-growing and intracellular bacteria” (npj Antimicrobials and Resistance, 2025).

Experiments:
[1] = tested on: non-growing S. aureus DSM2569; test: Dilution-regrowth assay (OD600, start-growth-time) on stationary-phase S. aureus; format: cell-based, Staphylococcus aureus; details: for OD600 at 8hr, Mean: S. aureus, after dilution into drug-free medium
Outline: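 Non-growing S. aureus was tested in a dilution-regrowth format. Cells were cultured and treated for 24 h in 1:4 diluted CA-MHB, pH 7.4, then diluted into drug-free medium, and OD600 was measured every 20 min. Start-growth-time was the time OD600 passed 0.12. Dose-response curves were fitted with a five-parameter logistic equation to derive EC50.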

non-growing UPEC CFT073 = test: Dose-dependent killing analysis (CFU spot-plating) of stationary-phase UPEC; format: cell-based, Escherichia coli
Outline: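 Killing assessed by CFU counts: overnight 37 °C LB agar spot plates (10 μl drops of 10-fold PBS dilutions) scored at the lowest dilution with distinct colonies. Samples were compound-treated non-growing UPEC CFT073, 200 μl per well. Performed as three biological replicates.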

[2] = tested on: non-growing S. aureus DSM2569; test: Dose-dependent killing analysis (CFU spot-plating) of stationary-phase S. aureus; format: cell-based, Staphylococcus aureus; details: for Log10(CFU/ml), Replicate #1 / Log10(CFU/ml), Replicate #2 / Log10(CFU/ml), Replicate #3 / Δlog10(CFU/ml): S. aureus; for Δlog10(CFU/ml): average killing vs before treatment (9,097)
Outline: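 Survival was scored as CFU after overnight growth at 37 °C on LB agar, using spots from 10-fold PBS dilutions of treated cultures. Non-growing S. aureus DSM2569 had been exposed to compound for 24 h in 1:4 CA-MHB, pH 7.4. Three biological replicates were run.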

[3] = E. coli in 1:4 CA-MHB (pH 7.4), 0.25 μM
[4] = E. coli in 1:4 CA-MHB (pH 7.4), 0.5 μM
[5] = E. coli in 1:4 CA-MHB (pH 7.4), 1 μM
[6] = E. coli in 1:4 CA-MHB (pH 7.4), 2.5 μM
[7] = E. coli in 1:4 CA-MHB (pH 7.4), 5 μM
[8] = E. coli in 1:4 CA-MHB (pH 7.4), 10 μM
[9] = E. coli in LPM (pH 5.5), 0.25 μM
[10] = E. coli in LPM (pH 5.5), 0.5 μM
[11] = E. coli in LPM (pH 5.5), 2.5 μM

Compound: Cn1c(COP(=O)(NCCBr)NCCBr)cnc1[N+](=O)[O-] [Evofosfamide]
- OD600 at 8hr, Mean ([1]; 0.1 μM): 0.802
- OD600 at 8hr, Mean ([1]; 0.5 μM): 0.751
- OD600 at 8hr, Mean ([1]; 2.5 μM): 0.502
- OD600 at 8hr, Mean ([1]; 10 μM): 0.107
- EC50 ([1]; Staphylococcus aureus, DSM2569, pH 7.4): 2660 nM
- Log10(CFU/ml), Replicate #1 (non-growing UPEC CFT073; [3]): 9.398 Log10(CFU/ml)
- Log10(CFU/ml), Replicate #2 (non-growing UPEC CFT073; [3]): 8.477 Log10(CFU/ml)
- Log10(CFU/ml), Replicate #3 (non-growing UPEC CFT073; [3]): 8.954 Log10(CFU/ml)
- Δlog10(CFU/ml) (non-growing UPEC CFT073; E. coli in 1:4 CA-MHB (pH 7.4), 0.25 μM, average killing vs before treatment (8.977)): 0.034 log10(CFU/ml)
- Log10(CFU/ml), Replicate #1 (non-growing UPEC CFT073; [4]): 9.279 Log10(CFU/ml)
- Log10(CFU/ml), Replicate #2 (non-growing UPEC CFT073; [4]): 9.114 Log10(CFU/ml)
- Log10(CFU/ml), Replicate #3 (non-growing UPEC CFT073; [4]): 8.301 Log10(CFU/ml)
- Δlog10(CFU/ml) (non-growing UPEC CFT073; E. coli in 1:4 CA-MHB (pH 7.4), 0.5 μM, average killing vs before treatment (8.977)): 0.079 log10(CFU/ml)
- Log10(CFU/ml), Replicate #1 (non-growing UPEC CFT073; [5]): 9.477 Log10(CFU/ml)
- Log10(CFU/ml), Replicate #2 (non-growing UPEC CFT073; [5]): 8.845 Log10(CFU/ml)
- Log10(CFU/ml), Replicate #3 (non-growing UPEC CFT073; [5]): 8.491 Log10(CFU/ml)
- Δlog10(CFU/ml) (non-growing UPEC CFT073; E. coli in 1:4 CA-MHB (pH 7.4), 1 μM, average killing vs before treatment (8.977)): 0.039 log10(CFU/ml)
- Log10(CFU/ml), Replicate #1 (non-growing UPEC CFT073; [6]): 9.415 Log10(CFU/ml)
- Log10(CFU/ml), Replicate #2 (non-growing UPEC CFT073; [6]): 8.954 Log10(CFU/ml)
- Log10(CFU/ml), Replicate #3 (non-growing UPEC CFT073; [6]): 8.491 Log10(CFU/ml)
- Δlog10(CFU/ml) (non-growing UPEC CFT073; E. coli in 1:4 CA-MHB (pH 7.4), 2.5 μM, average killing vs before treatment (8.977)): 0.024 log10(CFU/ml)
- Log10(CFU/ml), Replicate #1 (non-growing UPEC CFT073; [7]): 8.778 Log10(CFU/ml)
- Log10(CFU/ml), Replicate #2 (non-growing UPEC CFT073; [7]): 7.845 Log10(CFU/ml)
- Log10(CFU/ml), Replicate #3 (non-growing UPEC CFT073; [7]): 8.301 Log10(CFU/ml)
- Δlog10(CFU/ml) (non-growing UPEC CFT073; E. coli in 1:4 CA-MHB (pH 7.4), 5 μM, average killing vs before treatment (8.977)): 0.669 log10(CFU/ml)
- Log10(CFU/ml), Replicate #1 (non-growing UPEC CFT073; [8]): 9.000 Log10(CFU/ml)
- Log10(CFU/ml), Replicate #2 (non-growing UPEC CFT073; [8]): 8.000 Log10(CFU/ml)
- Log10(CFU/ml), Replicate #3 (non-growing UPEC CFT073; [8]): 7.778 Log10(CFU/ml)
- Δlog10(CFU/ml) (non-growing UPEC CFT073; E. coli in 1:4 CA-MHB (pH 7.4), 10 μM, average killing vs before treatment (8.977)): 0.718 log10(CFU/ml)
- Log10(CFU/ml), Replicate #1 (non-growing UPEC CFT073; [9]): 6.477 Log10(CFU/ml)
- Log10(CFU/ml), Replicate #2 (non-growing UPEC CFT073; [9]): 6.568 Log10(CFU/ml)
- Log10(CFU/ml), Replicate #3 (non-growing UPEC CFT073; [9]): 8.176 Log10(CFU/ml)
- Δlog10(CFU/ml) (non-growing UPEC CFT073; E. coli in LPM (pH 5.5), 0.25 μM, average killing vs before treatment (7.350)): 0.277 log10(CFU/ml)
- Log10(CFU/ml), Replicate #1 (non-growing UPEC CFT073; [10]): 6.602 Log10(CFU/ml)
- Log10(CFU/ml), Replicate #2 (non-growing UPEC CFT073; [10]): 6.903 Log10(CFU/ml)
- Log10(CFU/ml), Replicate #3 (non-growing UPEC CFT073; [10]): 8.230 Log10(CFU/ml)
- Δlog10(CFU/ml) (non-growing UPEC CFT073; E. coli in LPM (pH 5.5), 0.5 μM, average killing vs before treatment (7.350)): 0.105 log10(CFU/ml)
- Log10(CFU/ml), Replicate #1 (non-growing UPEC CFT073; E. coli in LPM (pH 5.5), 1 μM): 6.279 Log10(CFU/ml)
- Log10(CFU/ml), Replicate #2 (non-growing UPEC CFT073; E. coli in LPM (pH 5.5), 1 μM): 6.845 Log10(CFU/ml)
- Log10(CFU/ml), Replicate #3 (non-growing UPEC CFT073; E. coli in LPM (pH 5.5), 1 μM): 8.000 Log10(CFU/ml)
- Δlog10(CFU/ml) (non-growing UPEC CFT073; E. coli in LPM (pH 5.5), 1 μM, average killing vs before treatment (7.350)): 0.309 log10(CFU/ml)
- Log10(CFU/ml), Replicate #1 (non-growing UPEC CFT073; [11]): 6.301 Log10(CFU/ml)
- Log10(CFU/ml), Replicate #2 (non-growing UPEC CFT073; [11]): 6.079 Log10(CFU/ml)
- Log10(CFU/ml), Replicate #3 (non-growing UPEC CFT073; [11]): 7.954 Log10(CFU/ml)
- Δlog10(CFU/ml) (non-growing UPEC CFT073; E. coli in LPM (pH 5.5), 2.5 μM, average killing vs before treatment (7.350)): 0.572 log10(CFU/ml)
- Log10(CFU/ml), Replicate #1 (non-growing UPEC CFT073; E. coli in LPM (pH 5.5), 5 μM): 5.699 Log10(CFU/ml)
- Log10(CFU/ml), Replicate #2 (non-growing UPEC CFT073; E. coli in LPM (pH 5.5), 5 μM): 5.447 Log10(CFU/ml)
- Log10(CFU/ml), Replicate #3 (non-growing UPEC CFT073; E. coli in LPM (pH 5.5), 5 μM): 7.602 Log10(CFU/ml)
- Δlog10(CFU/ml) (non-growing UPEC CFT073; E. coli in LPM (pH 5.5), 5 μM, average killing vs before treatment (7.350)): 1.101 log10(CFU/ml)
- Log10(CFU/ml), Replicate #1 (non-growing UPEC CFT073; E. coli in LPM (pH 5.5), 10 μM): 5.176 Log10(CFU/ml)
- Log10(CFU/ml), Replicate #2 (non-growing UPEC CFT073; E. coli in LPM (pH 5.5), 10 μM): 4.954 Log10(CFU/ml)
- Log10(CFU/ml), Replicate #3 (non-growing UPEC CFT073; E. coli in LPM (pH 5.5), 10 μM): 7.146 Log10(CFU/ml)
- Δlog10(CFU/ml) (non-growing UPEC CFT073; E. coli in LPM (pH 5.5), 10 μM, average killing vs before treatment (7.350)): 1.592 log10(CFU/ml)
- Log10(CFU/ml), Replicate #1 ([2]; 0.1 μM): 9.580 Log10(CFU/ml)
- Log10(CFU/ml), Replicate #2 ([2]; 0.1 μM): 8.996 Log10(CFU/ml)
- Log10(CFU/ml), Replicate #3 ([2]; 0.1 μM): 9.049 Log10(CFU/ml)
- Δlog10(CFU/ml) ([2]; 0.1 μM): -0.111 log10(CFU/ml)
- Log10(CFU/ml), Replicate #1 ([2]; 0.5 μM): 9.362 Log10(CFU/ml)
- Log10(CFU/ml), Replicate #2 ([2]; 0.5 μM): 9.017 Log10(CFU/ml)
- Log10(CFU/ml), Replicate #3 ([2]; 0.5 μM): 8.881 Log10(CFU/ml)
- Δlog10(CFU/ml) ([2]; 0.5 μM): 0.011 log10(CFU/ml)
- Log10(CFU/ml), Replicate #1 ([2]; 2.5 μM): 8.863 Log10(CFU/ml)
- Log10(CFU/ml), Replicate #2 ([2]; 2.5 μM): 8.724 Log10(CFU/ml)
- Log10(CFU/ml), Replicate #3 ([2]; 2.5 μM): 8.663 Log10(CFU/ml)
- Δlog10(CFU/ml) ([2]; 2.5 μM): 0.347 log10(CFU/ml)
- Log10(CFU/ml), Replicate #1 ([2]; 10 μM): 5.954 Log10(CFU/ml)
- Log10(CFU/ml), Replicate #2 ([2]; 10 μM): 5.845 Log10(CFU/ml)
- Log10(CFU/ml), Replicate #3 ([2]; 10 μM): 5.748 Log10(CFU/ml)
- Δlog10(CFU/ml) ([2]; 10 μM): 3.248 log10(CFU/ml)
- reduction of non-growing S. aureus ([2]; at 10 µM, 24 h treatment): below the limit of detection
